Source: patent US20220105093A1, “PHARMACEUTICAL COMPOSITIONS AND COMBINATIONS COMPRISING INHIBITORS OF THE ANDROGEN RECEPTOR AND USES THEREOF” (ESSA Pharma, Inc., priority 2020, published 2022)

Tests used:
[1] = test system: androgen responsive genes in VCaP cells; assay: mRNA expression of androgen responsive genes in VCaP cells (RNAseq); type: cell-based
Description: Relative mRNA expression in VCaP was measured to assess response of Compound A, enzalutamide (Enza), apalutamide (Apa), or darolutamide (Daro) alone or Compound A in combination with Enza, Apa, or Daro, in androgen responsive genes.

[2] = In vivo pharmacokinetics in plasma after oral gavage; details: mouse, male CD-1 mice
Description: The purpose of this study is to determine the pharmacokinetics of the tested compounds in plasma, following oral gavage administration (PO) to male CD-1 mice.
Animal Husbandry: Animals were group housed during acclimation and the study. The animal room environment were controlled (target conditions: temperature 18 to 26° C., relative humidity 30 to 70%, 12 hours artificial light and 12 hours dark). Temperature and relative humidity were monitored daily. Animals were fasted at least 12 hours prior to the administration. All animals had access to Certified Rodent Diet ad libitum 4 hours post dosing.
Dose Formulation: prepared 85-100 μL of a stock solution of representative compounds of the disclosure in DMSO at 50 mM; 1.5% v/v of Tween 80 were added and mixed gently; 95.5% v/v saline was added gently to the organic phase. The solution was mixed slowly by reverse pipetting to get a clear solution.
Dose Administration: the dose formulations were administered via oral gavage per facility SOPs. The dose volume were determined by the animals' body weight collected on the morning of dosing day
Sample Collection: blood collection (about 0.05 mL per time point) was performed from saphenous vein of each animal into polypropylene tubes at each timepoints (0, 0.25, 0.5, 1, 2, 4, 8, 12, and 24 hr). All blood samples were transferred into pre-chilled tubes containing 2 μL of K2-EDTA (0.5M) and placed on wet ice until centrifugation. Each collected blood sample was in the wet-ice before centrifugation. Each collected blood was under centrifugation for 15 minutes at 4° C. and 3000 g for plasma collection. Plasma samples were stored in polypropylene tubes, quickly frozen over dry ice and kept at −70±10° C. until LC/MS/MS analysis.
Bioanalytical analysis: A LC-MS/MS method for the quantitative determination of tested compound in biological matrix were developed under non-GLP compliance. A calibration curve with at least 7 non-zero calibration standards were applied for the method including LLOQ.
Plasma concentration versus time data were analyzed by non-compartmental approaches using the Phoenix WinNonlin 6.3 software program. Cl, Vdss, C0, Cmax, Tmax, T½, AUC(0-t), AUC(0-inf), MRT(0-t), MRT(0-inf), % F (oral availability) and graphs of plasma concentration versus time profile were reported.

[3] = test system: androgen responsive genes in LNCaP cells; assay: mRNA expression of androgen responsive genes in LNCaP cells (NanoString AR/Prostate Cancer gene panel)
[4] = Compound A in plasma, single PO dose 60.00 mg/kg, single agent or with enzalutamide
[5] = enzalutamide in plasma, single PO dose 15.0 mg/kg, single agent or with Compound A

Row | Compound | inhibition of canonical AR dependent genes ([1]; Compound A at 10 μM in combination with the 'lutamides (FIGS. 11A, 11B)) | synergy on androgen responsive gene expression ([1]; Compound A at 10 μM with Enza, Apa or Daro, R1881 stimulation (FIG. 10)) | AUC(0-t) [2, 4] [µg·h/mL] | Cmax [2, 4] [µg/mL] | Tmax [2, 4] [h] | half-life ([2]; Compound A in plasma, single PO dose 60.00 mg/kg, single agent or with enzalutamide, read-out: T½ (converted)) [h] | Relative mRNA expression of androgen response genes FKBP5, TMPRSS2, KLK2, KLK3, and NKX3.1 ([3]; LNCaP cells (FIG. 6A)) | Log2Fold Change ERRFl1 ([3]; LNCaP, 7.5 μM) | Log2Fold Change SNAl2 ([3]; LNCaP, 7.5 μM) | AUC(0-t) [2, 5] [µg·h/mL] | Cmax [2, 5] [µg/mL] | Tmax [2, 5] [h] | Log2Fold Change CDC6 ([3]; LNCaP, 7.5 μM)
1 | CC(C)(c1ccc(OCc2ccnc(NS(C)(=O)=O)n2)cc1)c1cc(Cl)c(OCCCl)c(C#N)c1 [Compound A, N-(4-((4-(2-(3-chloro-4-(2-chloroethoxy)-5-cyanophenyl)propan-2-yl)phenoxy)methyl)pyrimidin-2-yl)methanesulfonamide] | superior inhibition of responsive genes | can synergize with Enza, Apa, and Daro | 483 | 41.7 | 4 | 5.4 | dose-dependent response | −2.76 | −1.79 |  |  |  | 
2 | CNC(=O)c1ccc(N2C(=S)N(c3ccc(C#N)c(C(F)(F)F)c3)C(=O)C2(C)C)cc1F [Enzalutamide, enzalutamide, reference compound] |  |  |  |  |  |  |  | −4.51 | −3.97 | 388 | 21.1 | 9 | −1.20
